In the assay the test system is blood flow volume of a hindlimb of the rat. Kind of assay: Hindlimb blood flow volume of rats after oral administration, measured with a two-dimensional laser blood flow meter. Type of assay: in vivo. Particulars: male SD rat hindlimb; for Increase in blood flow volume: one hour after oral administration vs before administration, average of three rats; for Increase in blood flow volume / Change in hindlimb blood flow volume between before and after the administration (in words): 10-hydroxydecanoic acid 120 mg/kg, 10-H2DA 420 mg/kg, Toki-shakuyaku-san 3750 mg/kg; for Change in hindlimb blood flow volume between before and after the administration (in words): one hour after oral administration. The protocol: As a test animal, a 6 to 8 week-old male rat Slc: SD rat (Japan SLC, Inc.) was used. As test substances, 10-hydroxydecanoic acid (manufactured by Combi-Blocks Inc.), trans-10-hydroxy-2-decenoic acid (referred to as “10-H2DA” hereinafter, manufactured by HANGZOU EASTBIOPHARM CO., LTD.) and Toki-shakuyaku-san (manufactured by TSUMURA & CO.) were used. A 0.5% w/v aqueous solution of methyl cellulose 400 (Wako Pure Chemical Industries, Ltd.) was prepared, and in the aqueous solution, the test substances were each suspended, thereby preparing a 12 mg/mL solution of 10-hydroxydecanoic acid, a 42 mg/ml solution of 10-H2DA and a 375 mg/ml solution of Toki-shakuyaku-san. The test animals were divided into four groups each consisting of three animals, and these groups were referred to as a 10-hydroxydecanoic acid group, a 10-H2DA group, a Toki-shakuyaku-san group and a control group. Using a gastric tube, the respective methyl cellulose aqueous solutions were orally administered to the 10-hydroxydecanoic acid group in such a desired amount that the amount of 10-hydroxydecanoic acid was 120 mg/kg, to the 10-H2DA group in such a desired amount that the amount of 10-H2DA was 420 mg/kg, and to the Toki-shakuyaku-san group in such a desired amount that the amount of Toki-shakuyaku-san was 3750 mg/kg. To the control group, a control substance (0.5% w/v methyl cellulose aqueous solution 10 mL/kg) was orally administered using a gastric tube.
Before the administration of the test substance and after one hour from the administration, a blood flow volume of a hindlimb of the rat was measured in an awaking and non-fixed state. For the measurement, a two-dimensional laser blood flow meter OZ-1 (manufactured by OMEGAWAVE INC.) was used. An increase in the blood flow volume (average value of three rats) based on that before the administration of each of the control group, the 10-hydroxydecanoic acid group, the 10-H2DA group and the Toki-shakuyaku-san group after one hour from the administration is shown in Table 1.

Consider `O=C(O)/C=C/CCCCCCCO` [10-H2DA, trans-10-hydroxy-2-decenoic acid, reference compound], for which the “Increase in blood flow volume” value turned out to be 2.2 arbitrary unit; the “Change in hindlimb blood flow volume between before and after the administration (in words)” value was “a certain increase in the blood flow volume”.
Take `O=C(O)CCCCCCCCCO` [10-Hydroxydecanoic acid, 10-hydroxydecanoic acid]: the “Increase in blood flow volume” value stood at 5.8 arbitrary unit; the “Change in hindlimb blood flow volume between before and after the administration (in words)” value was “a remarkable increase in the blood flow volume”. Further, where the note is “one hour after oral administration of 120 mg/kg, FIG. 1”, the “Difference in blood flow volume between the control group and the treated group” value is reported as “a significant difference (P=0.01)”.

(Values after patent US20190231740A1, “BLOOD FLOW-IMPROVING AGENT, ROYAL JELLY COMPOSITION, AND METHOD FOR PRODUCING ROYAL JELLY COMPOSITION” (YAMADA BEE COMPANY, INC., priority 2016, published 2019).)
